Experiments:
[1] = system: Dorsal root ganglia-Schwann cell co-cultures; assay: in vitro myelination in dorsal root ganglia-Schwann cell co-cultures; type: cell-based
Source text: The inventors hypothesized that NAALADase may play a role in signaling myelin formation and inhibition of NAALADase may facilitate myelination. To test this hypothesis, the inventors examined the effects of several NAALADase inhibitors in a well established in vitro model system of myelination. Dorsal root ganglia-Schwann cell co-cultures were established as previously described (Einheber et al., J. Cell. Biol., Vol. 123, p. 1223). Following 7 days in co-culture, myelination was initiated following the addition of serum and ascorbic acid with various doses of NAALADase inhibitors (1 nM to 10 μM) or progesterone (20 nM; positive control). The extent of myelination was examined between days 14-21 using immunocytochemical staining for myelin basic protein (MBP), a known myelin marker.

[2] = system: streptozotocin (STZ)-induced peripheral diabetic neuropathy; assay: in vivo STZ-induced peripheral diabetic neuropathy model, plantar test; design: species or system Male Sprague-Dawley rats; settings: 50 mg/kg i.p. once per day, following 5 days of dosing
Method: NAALADase inhibition in an in vivo streptozotocin (STZ)-induced peripheral diabetic neuropathy model was studied. Male Sprague-Dawley rats weighing 200-250 g were rendered diabetic by intravenous injection of 60 mg/kg STZ into the tail vein. Plasma glucose levels were determined 3 weeks after STZ administration. Only STZ-animals with plasma glucose levels>300 mg/dL (17 mM) were used in the study. Thermal pain threshold and withdrawal latency were used to assess the status of the small dorsal root ganglion (DRG) sensory neurons. Pain was monitored using the plantar test (Hargreaves' Method) using a Basile Plantar apparatus built by Ugo Basil, Vaarese, Italy.
At two months following the STZ administration, the diabetic animals were hyperalgesic as compared to non-diabetic controls as determined by their difference in withdrawal latency. At this time, the rats were administered either the NAALADase inhibitor Compound 2 (50 mg/kg) or vehicle intraperitoneally once per day for 20 days. Thermal pain responses were measured at days 3, 5, 12 and 19 post-dosing. […] This difference was maintained throughout the observation period.

[3] = system: acetic acid (0.6%) induced writhing; assay: acetic acid model of pain (writhing); type: in vivo, mice; settings: pretreated
Source text: One source of neuronal glutamate is thought to derive from the abundant neuropeptide NAAG which is hydrolyzed by NAALADase to liberate free glutamate. The inventors hypothesized that inhibition of NAALADase could limit pain by preventing this source of glutamate. To test this hypothesis, the inventors examined the possible antinocipetive effects of several NAALADase inhibitors in the formalin-, acetic acid- and chronic constrictive injury (CCI; “Bennett model”) models of pain. […] On day 7, 5% formalin was injected into the dorsum of the rat's hindpaw.

[4] = system: STZ-induced diabetic rats; assay: in vivo assay on neuropathic pain in STZ-diabetic rats (Hargreaves); design: species or system Male Sprague-Dawley rats; settings: 10 mg/kg i.p. daily, started 45 days post-STZ
Method: (§1) Male Sprague-Dawley rats (200-225 g) were rendered diabetic by intravenous administration of streptozotocin (STZ, 70 mg/kg in phosphate buffered saline). Diabetic animals were divided into five groups: one group receiving Compound 2 (10 mg/kg or 1 mg/kg), Compound 1 (10 mg/kg or 1 mg/kg) or vehicle. Another group of animals (non-STZ treated) served as non-diabetic controls. Drug/vehicle treatment was started in diabetic animals 45 days post-STZ administration. STZ-induced diabetic rats were tested for sensitivity to a heat source as soon as blood glucose levels rose to 320 mg/dl or above (30 days post STZ). The rats were then acclimated to the Hargreaves apparatus and thermal nociception was monitored using an infrared heat source directed into the […] surface of the hindpaw, and the time taken for the animal to remove its paw noted to the nearest 0.1 seconds (see Hargreaves et al. 1998 for detailed method). The intensity of the beam source was adjusted such that the mean latency for control animals (non-STZ treated) was approximately 10 seconds. Each animal was tested 8 times and the mean difference score (between mean non-diabetic control latency and mean diabetic latency) are graphically presented in FIGS. 19A and 19B.

BB/W diabetic rats [5] = assay: progression of neuropathic pain in BB/W diabetic rats, thermal nociception; type: in vivo, Male BB/W rats; settings: 10 mg/kg i.p. daily; starting after 4 weeks, through six months
Source text: (§2) Male BB/W rats (BR1, Mass) spontaneously develop a cell mediated autoimmune destruction of pancreatic B cells, resulting in onset of insulin-dependent (Type I) diabetes (Guberski 1994). […] This renders them valuable for experimental trials of new compounds for future treatments of this major disorder. In the present study, Compound 1 and Compound 2 were examined for their ability to alter the progression of diabetic neuropathy. The rats received daily injection of Compound 1 or Compound 2 (10 mg/kg i.p.) or vehicle, starting at the onset of diabetes (hyperglycemia) and up to 6 months thereafter. Another group of non-diabetic rats also receiving vehicle were tested. All animals were continuously monitored for body weight, urine volume, blood sugar and glycated haemoglobin. In the first month of the study, all animals were tested for thermal nociception in a Hargreaves apparatus, weekly. After the first month this was done biweekly and then monthly. The testing consists of directing an infrared heat source onto the […] surface of the rat hindpaw and noting the time taken for the animal to remove its paw (for detailed method see Hargreaves et al. 1998). Each animal was tested 8 times and the mean withdrawal latency noted.

BB/W diabetic rats [6] = assay: nerve conduction velocity in BB/W diabetic rats; type: in vivo, Male BB/W rats; settings: 10 mg/kg daily; starting at 8 weeks, through six months
Source text: as §2, with “Each animal was tested 8 times and the mean withdrawal latency noted.” left out
Nerve conduction velocity was also measured every two weeks through the first eight weeks of treatment and every month thereafter through to the six months of treatment (see De Koning et al. 1987 for method details). […]

STZ-diabetic animals = assay: motor and sensory nerve conduction velocity in STZ-diabetic animals; type: in vivo, rats; settings: 10 mg/kg daily
Method: as §1
Motor and sensory nerve conduction velocity was also measured in STZ-diabetic animals after 4, 8 and 12 weeks of treatment (see De Koning and Gispen 1987 for detailed method). Briefly, stimulating needle electrodes were inserted close to the sciatic and tibial nerves with recording electrodes being placed subcutaneously over the distal foot muscles, in anesthetized rats.

PCP-treated rats = assay: in vivo assay on schizophrenia (PCP model); settings: 50 mg/kg i.p. before PCP (5 mg/kg)
Method: Rats treated with PCP develop symptoms, such as frantic running and incessant head-turning, that parallel psychotic symptoms in humans. Thus, to examine the effects of NAALADase inhibition on schizophrenia, rats were treated intraperitoneally with Compound 1 (50 mg/kg), Compound 2 (50 mg/kg) or a vehicle (H2O) before they received PCP (5 mg/kg). Head rolling scores were measured for over 2 hours following PCP injection.

In the case of `O=C(O)CCC(CP(=O)(O)Cc1c(F)c(F)c(F)c(F)c1F)C(=O)O` (stereo not shown) [Compound 2, 2-[[(2,3,4,5,6-pentafluorobenzyl)hydroxyphosphinyl]methyl]-pentanedioic acid], the “immunostaining of MBP” value ([1]; 1 nM, two week treatment) is reported as “significant increase”, the “extent of myelination vs. maximal doses of ascorbic acid and progesterone” value ([1]; high dose, 1 μM) is reported as “greater extent of myelination” and the “withdrawal latency vs. vehicle animals” value [2] is reported as “significant increase”. For the same molecule, the “acetic acid (0.6%) induced writhing vs. vehicle control” value [3] was “significantly attenuated”, the “hyperalgesic response in diabetic rats” value [4] was “completely reversed” and the “withdrawal latencies vs. diabetic vehicle-treated rats” value (BB/W diabetic rats [5]) was “longer withdrawal latencies”. For the same molecule, the “nerve conduction deficits vs. diabetic controls receiving vehicle” value (BB/W diabetic rats [6]) was “significantly less severe nerve conduction deficits”, the “sensory nerve conduction velocity” value (STZ-diabetic animals; after 8 weeks) was “significant improvement” and the “motor nerve conduction velocity” value (STZ-diabetic animals; after 12 weeks) was “significant improvement”. For the same molecule, the “locomotor-activating effects of PCP (head rolling scores)” value (PCP-treated rats) was “significantly reduced”.

Source: patent US20030083374A1, “NAALADase inhibitors useful as pharmaceutical compounds and compositions” (priority 1998, published 2003)
